The record followed here is patent US7939661B2, “Pyridine, quinoline and pyrimidine derivatives” (Hoffman-La Roche Inc., priority 2006, dated 2011).

T1 sequence (P35346 whole entry): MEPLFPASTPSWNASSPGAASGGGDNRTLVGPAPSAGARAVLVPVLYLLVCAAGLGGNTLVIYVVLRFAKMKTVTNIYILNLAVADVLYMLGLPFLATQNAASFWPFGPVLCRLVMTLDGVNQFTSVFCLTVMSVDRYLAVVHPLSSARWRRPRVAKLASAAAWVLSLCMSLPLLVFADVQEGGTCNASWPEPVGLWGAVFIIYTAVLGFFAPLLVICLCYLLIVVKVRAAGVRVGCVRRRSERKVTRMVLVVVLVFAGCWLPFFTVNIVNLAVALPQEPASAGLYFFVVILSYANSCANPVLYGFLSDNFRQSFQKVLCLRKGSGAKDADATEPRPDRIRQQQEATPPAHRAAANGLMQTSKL

This experiment addresses T1, human subtype 5 somatostatin receptor (Homo sapiens, UniProt P35346).
T1 construct: host or cells: CHO cells, stably transfected; membranes prepared from them
Put plainly: radioligand replacement (binding) assay, membranes of CHO cells expressing human SSTR5, 125I-labeled 11-Tyr somatostatin-14 tracer. The note with it: human SSTR5, CHO cell membranes, 0.05 nM 125I-labeled 11-Tyr somatostatin-14, 1 h at rt; Ki from IC50 by Cheng-Prussoff equation. Here is the method:
A CHO cell line stably transfected with a plasmid encoding the human subtype 5 somatostatin receptor (GenBank accession number D16827) was obtained from Euroscreen. Cells were cultured and used for binding and functional assays.
Membranes of these cells were prepared by sonication in the presence of protease inhibitors and subsequent fractionating centrifugation. The protein concentration in the membrane preparation was determined using a commercial kit (BCA kit, Pierce, USA). Membranes were stored at −80° C. until use. After thawing membranes were diluted in assay buffer (50 mM Tris-HCl at pH 7.4, 5 mM MgCl2 and 0.20% BSA) and subjected to Dounce homogenization.
For binding studies, 0.1 mL membrane suspension, corresponding to approximately 6×10^−15 mol receptor, was incubated for 1 h at rt with 0.05 nM ^125I-labeled tracer (11-Tyr somatostatin-14, Perkin-Elmer) and either test compounds in varying concentrations or, for the determination of non-specific binding, 0.001 mM non-labeled somatostatin-14. The incubation was stopped by filtration through GF/B glassfiber filters and washing with ice-cold wash buffer (50 mM Tris-HCl at pH 7.4). The bound radioactivity was measured after application of a scintillation cocktail (Microscint 40) and expressed as disintegrations per minute (dpm).
The receptor concentration was determined in a prior saturation experiment where a fixed, arbitrary amount of membranes was incubated with a concentration range of radio-labeled tracer. This allows estimating the total number of specific binding sites per amount of protein (i.e., Bmax), typically between 1 and 5 pmol/mg.
The concentration of the test compound required to result in half maximal inhibition of binding of the radio-labeled tracer (IC50) was estimated from a concentration-versus-dpm graph. The binding affinity (Ki) was calculated from the IC50 by applying the Cheng-Prussoff equation for single binding sites.
In general, Ki refers to the equilibrium dissociation constant of an inhibitor or competing ligand from its target. Compound `CCOc1cc(CN2CCC(Nc3cnc(N)c(C)c3)CC2)cc(OCC)c1-c1ccc(F)cc1` [Example 79, N^5-[1-(2,6-diethoxy-4′-fluoro-biphenyl-4-ylmethyl)-piperidin-4-yl]-3-methyl-pyridine-2,5-diamine] returned a Ki of 25 nM.

As to `CCOc1cc(CN2CCC(Nc3cnc4ccccc4c3)CC2)ccc1OC(F)F` [Example 99, [1-(4-difluoromethoxy-3-ethoxy-benzyl)-piperidin-4-yl]-quinolin-3-yl-amine], the affinity corresponds to a Ki of 62 nM.

The compound `CCOc1cc(CN2CCC(Nc3ccnc(C)c3)CC2)ccc1OCC(C)C` [Example 122, [1-(3-ethoxy-4-isobutoxy-benzyl)-piperidin-4-yl]-(2-methyl-pyridin-4-yl)-amine] displayed an inhibitory constant (Ki) of 492 nM.
